Experiments:
[1] = test system: T-Rex 293 cell line SC3 cells having increased expression of androgen receptor protein due to exposure to doxycycline; test: Cellular growth inhibition assay, T-Rex 293 SC3 cells with doxycycline (CellTiter-Glo, 72 hours); format: cell-based; details: 72 h, T-Rex 293 SC3 cells with increased androgen receptor expression due to doxycycline (10 ng/mL)
Outline: (§1)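 Doxycycline (10 ng/mL) was either included or omitted to toggle wild-type androgen receptor expression in SC3 cells, a T-Rex 293 clone, grown in stripped-serum, phenol red-free medium. After 72 hours with compound, viable cells were quantified by CellTiter-Glo 2.0.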

[2] = test system: VCaP cells; test: Cellular growth inhibition assay for VCaP cells (CellTiter-Glo, 72 hours); format: cell-based, human; details: Homo sapiens, VCaP, 72 h
Outline: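 Luminescent viability signal after 72 h of compound exposure gave GI50 values by four-parameter nonlinear regression. Compounds were added in 0.5% DMSO to cells plated 24 h earlier at 5000/well in DMEM containing 10% FBS.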

[3] = test system: T-Rex 293 cell line SC3 cells lacking increased expression of androgen receptor protein; test: Cellular growth inhibition assay, T-Rex 293 SC3 cells without doxycycline (CellTiter-Glo, 72 hours); format: cell-based; details: 72 h, T-Rex 293 cell line SC3 cells not exposed to doxycycline (lacking increased androgen receptor expression)
Outline: as §1

[4] = test system: T47D cells; test: Cellular growth inhibition assay for T47D cells (CellTiter-Glo, 72 hours); format: cell-based, human; details: Homo sapiens, T47D, 72 h, 72 hours treatment
Outline: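 Luminescence from CellTiter-Glo 2.0 after 72 h of compound exposure gives the viability signal. Cells grew in insulin-supplemented (0.2 units/mL) DMEM with 10% FBS and were treated one day after seeding at 0.5% DMSO. GI50 values come from four-parameter nonlinear regression.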

Structure (SMILES) | GI50 [1] | GI50 [2] | GI50 [3] | GI50 [4]
Cc1sc2c(c1C)C(c1ccc(C[C@H]3CC[C@@]4(C3)CN(c3ccc(C(=O)N[C@H]5CC[C@H](Oc6ccc(C#N)c(Cl)c6)CC5)nn3)CCO4)cc1)=N[C@@H](Cc1ncco1)c1nnc(C)n1-2 [I-267] | < 500 nM | < 500 nM | < 500 nM | < 500 nM
Cc1sc2c(c1C)C(c1ccc(C[C@H]3CC[C@]4(CCCN(c5ccc(C(=O)N[C@H]6CC[C@H](Oc7ccc(C#N)c(Cl)c7)CC6)nn5)C4)C3)cc1)=N[C@@H](Cc1ncco1)c1nnc(C)n1-2 [I-124] | < 500 nM | < 500 nM | < 500 nM | < 500 nM
Cc1sc2c(c1C)C(c1ccc(OC3CC4(CCN(c5ccc(C(=O)N[C@H]6CC[C@H](Oc7ccc(C#N)c(Cl)c7)CC6)nn5)CC4)C3)cc1)=N[C@](C)(C(C)c1ncco1)c1nnc(C)n1-2 (some centres unmarked) [I-237] | < 500 nM | > 3000 nM | > 3000 nM | < 500 nM
Cc1sc2c(c1C)C(c1ccc([C@@H]3C[C@H]3C3CC4(CCN(c5ccc(C(=O)N[C@H]6CC[C@H](Oc7ccc(C#N)c(Cl)c7)CC6)nn5)CC4)C3)cc1)=N[C@@H](Cc1ncco1)c1nnc(C)n1-2 [I-201] | < 500 nM | < 500 nM | > 3000 nM | < 500 nM
Cc1sc2c(c1C)C(c1ccc(C#CC3CC4(C3)CN(c3ccc(C(=O)N[C@H]5CC[C@H](Oc6ccc(C#N)c(Cl)c6)CC5)nn3)C4)cc1)=N[C@@H](Cc1ncco1)c1nnc(C)n1-2 [I-138] | < 500 nM | < 500 nM | < 500 nM | < 500 nM
Cc1sc2c(c1C)C(c1ccc(N3CCC[C@H](C(=O)N4CCC[C@H](c5ccc(C(=O)N[C@H]6CC[C@H](Oc7ccc(C#N)c(Cl)c7)CC6)nn5)C4)C3)cc1)=N[C@H](Cc1ncco1)c1nnc(C)n1-2 [I-303] | > 3000 nM | > 3000 nM | > 3000 nM | > 3000 nM
Cc1sc2c(c1C)C(c1ccc(OCCC3CCN(c4ccc(C(=O)N[C@H]5CC[C@H](Oc6ccc(C#N)c(Cl)c6)CC5)nn4)CC3)cc1)=NC(Cc1ncco1)c1nnc(C)n1-2 (some centres unmarked) [I-78] | < 500 nM | < 500 nM | < 500 nM | < 500 nM
Cc1sc2c(c1C)C(c1ccc(C[C@H]3C[C@]4(CCCN(c5ccc(C(=O)N[C@H]6CC[C@H](Oc7ccc(C#N)c(Cl)c7)CC6)nn5)C4)C3)nc1)=N[C@@H](Cc1ncco1)c1nnc(C)n1-2 [I-385] | < 500 nM | < 500 nM | > 3000 nM | 500 to 1500 nM
Cc1sc2c(c1C)C(c1ccc([C@@H]3CCN(C(=O)[C@H]4CCCN(c5ccc(C(=O)N[C@H]6CC[C@H](Oc7ccc(C#N)c(Cl)c7)CC6)nn5)C4)C3)cc1)=N[C@@H](Cc1ncco1)c1nnc(C)n1-2 [I-344] | > 3000 nM | > 3000 nM | > 3000 nM | > 3000 nM
Cc1sc2c(c1C)C(c1ccc(N3CC(C4CCN(c5ccc(C(=O)N[C@H]6CC[C@H](Oc7ccc(C#N)c(Cl)c7)CC6)nn5)CC4)C3)cc1)=N[C@@H](C)c1nnc(C)n1-2 [I-434] | < 500 nM | < 500 nM | < 500 nM | 500 to 1500 nM
Cc1sc2c(c1C)C(c1ccc(C3CN(C4CCN(c5ccc(C(=O)N[C@H]6CC[C@H](Oc7ccc(C#N)c(Cl)c7)CC6)nn5)CC4)C3)cc1)=N[C@@H](Cc1ncco1)c1nnc(C)n1-2 [I-212] | < 500 nM | < 500 nM | < 500 nM | < 500 nM
Cc1sc2c(c1C)C(c1ccc(C#CCN3[C@H](C)CN(c4ccc(C(=O)N[C@H]5CC[C@H](Oc6ccc(C#N)c(Cl)c6)CC5)nn4)C[C@@H]3C)cc1)=N[C@@H](Cc1ncco1)c1nnc(C)n1-2 [I-140] | < 500 nM | < 500 nM | < 500 nM | < 500 nM
Cc1sc2c(c1C)C(c1ccc(C=C3CC4(CCCN(c5ccc(C(=O)NC6CCC(Oc7ccc(C#N)c(Cl)c7)CC6)nn5)C4)C3)cc1)=N[C@@H](Cc1ncco1)c1nnc(C)n1-2 (stereo partly drawn) [I-142, N-[4-(3-chloro-4-cyano-phenoxy)cyclohexyl]-6-[2-[[4-[(9S)-4,5,13-trimethyl-9-(oxazol-2-ylmethyl)-3-thia-1,8,11,12-tetrazatricyclo[8.3.0.02,6]trideca-2(6),4,7,10,12-pentaen-7-yl]phenyl]methylene]-6-azaspiro[3.5]nonan-6-yl]pyridazine-3-carboxamide] | < 500 nM | < 500 nM | < 500 nM | < 500 nM
Cc1sc2c(c1C)C(c1ccc(C#CC3CC4(CCCN(c5ccc(C(=O)NC6CCC(Oc7ccc(C#N)c(Cl)c7)CC6)nn5)C4)C3)cc1)=NCc1nnc(C)n1-2 (centres unmarked) [I-419] | < 500 nM | < 500 nM | > 3000 nM | < 500 nM
